# “And” between values parts separate entries of the source, which are not always exact repeats. Identical values can stand only once. Like-named read-outs stand apart in the source and are kept apart here.
# What was measured:
# eIF4E phosphorylation = assay: In vivo eIF4E phosphorylation in different tissues (Western blot), 4ET-01-021; set-up: species or system mice; conditions: PO 10 mg/kg
# From the text: However, 4ET-01-021 minimally-inhibited phosphorylation of eIF4E in the brain, as determined by Western blot analysis of brain tissue from the cortex.
# [1] = target: T1, protein kinase G 2 (PKG2) (Homo sapiens, UniProt Q13237); assay: Off-target kinase screen PKG2; assay type: biochemical; conditions: 1 μM test compound
# T1 sequence (Q13237 1-762): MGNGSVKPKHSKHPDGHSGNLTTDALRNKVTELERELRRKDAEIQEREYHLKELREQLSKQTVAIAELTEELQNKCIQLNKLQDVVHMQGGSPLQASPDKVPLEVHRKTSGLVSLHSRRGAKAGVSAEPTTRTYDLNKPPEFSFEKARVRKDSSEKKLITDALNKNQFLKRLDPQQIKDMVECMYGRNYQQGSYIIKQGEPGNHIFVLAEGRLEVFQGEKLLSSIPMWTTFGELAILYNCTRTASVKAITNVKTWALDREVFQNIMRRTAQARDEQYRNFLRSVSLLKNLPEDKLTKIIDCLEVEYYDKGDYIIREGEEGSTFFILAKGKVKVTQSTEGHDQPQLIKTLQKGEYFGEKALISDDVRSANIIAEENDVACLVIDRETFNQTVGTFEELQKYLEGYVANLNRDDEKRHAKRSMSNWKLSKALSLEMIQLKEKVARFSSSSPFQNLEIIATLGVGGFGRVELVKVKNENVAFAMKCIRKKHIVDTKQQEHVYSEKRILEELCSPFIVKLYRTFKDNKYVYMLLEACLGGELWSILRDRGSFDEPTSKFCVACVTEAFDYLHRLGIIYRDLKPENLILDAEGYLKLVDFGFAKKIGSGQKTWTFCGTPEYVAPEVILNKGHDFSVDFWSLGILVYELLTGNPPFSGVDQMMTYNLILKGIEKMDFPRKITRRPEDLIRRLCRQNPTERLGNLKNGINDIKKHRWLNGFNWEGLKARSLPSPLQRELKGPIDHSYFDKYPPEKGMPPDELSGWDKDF
# From the text: These kinases were chosen because they are the only known off-target hit kinases for eFT508. These assays were done using recombinant human kinases (CLK4, DRAK1 and PKG2) in a substrate phosphorylation assay. % activity remaining after MNK inhibitor treatment is indicated in Table 12.
# [2] = Pharmacokinetic study, 4ET-03-009 at 10 mg/kg oral; assay type: in vivo, CD-1 male mice; conditions: for AUCinf/D / Cmax/D: dose normalized; for concentration at 24 hours: read-out: Clast
# Description: Compound 4ET-03-009 was dissolved in a 10% dimethylacetamide (DMA)/[…] solvent. CD-1 male mice were orally dosed with 10 mg/kg of compound 4ET-03-009 in 20 mL/kg of liquid. Plasma was collected at indicated timepoints and plasma concentration of compound 4ET-03-009 was measured using liquid chromatography-mass spectrometry/mass spectrometry (LC-MS/MS). Results are presented in FIG. 1 and Tables 3, 4, and 5.
# [3] = Liver microsome stability, human; assay type: in vitro ADME; conditions: liver microsomes
# [4] = male, CD-1, mouse, plasma, po, 10 mg/kg, Mean (n = 3)
# [5] = male, CD-1, mouse, plasma, po, 10 mg/kg, individual animals
compound,measurement,setting,value
"CCC1=CC2(CCC1)NC(=O)c1c(C)cc(Nc3cc(N)ncn3)c(=O)n12 (stereo not shown) [Compound 4ET-01-021, 6′-((6-Aminopyrimidin-4-yl)amino)-3-ethyl-8′-methyl-2′H-spiro[cyclohexane-1,3′-imidazo[1,5-a]pyridin]-2-ene-1′,5′-dione]",eIF4E phosphorylation in the brain (cortex),eIF4E phosphorylation,minimally-inhibited
same,"eIF4E phosphorylation in DRGs, sciatic nerve, and spleen",eIF4E phosphorylation; 2 hours or 4 hours post dose,significant inhibition of eIF4E phosphorylation
"Cc1cc(Nc2cc(NC(=O)C3CC3)ncn2)c(=O)n2c1C(=O)NC21CCOCC1 [Compound 4ET-03-009, N-(6-((8-Methyl-1,5-dioxo-1,2′,3′,5,5′,6′-hexahydro-2H-spiro[imidazo[1,5-a]pyridine-3,4′-pyran]-6-yl)amino)pyrimidin-4-yl)cyclopropanecarboxamide]",remaining activity at 1 µM,[1],99%
same,abnormal clinical symptoms during the study,[2],No abnormal clinical symptoms were observed
same,Plasma Conc. (per mouse n = 3),[2]; 0.083 hours,85.3 ng/mL and 106 ng/mL
same,Plasma Conc. (per mouse n = 3),[2]; 0.25 hours,147 ng/mL and 161 ng/mL
same,Plasma Conc. (per mouse n = 3),[2]; 0.5 hours,270 ng/mL and 205 ng/mL
same,Plasma Conc. (per mouse n = 3),[2]; 1 hours,318 ng/mL and 233 ng/mL
same,Plasma Conc. (per mouse n = 3),[2]; 2 hours,271 ng/mL and 216 ng/mL
same,Plasma Conc. (per mouse n = 3),[2]; 4 hours,169 ng/mL and 124 ng/mL
same,Plasma Conc. (per mouse n = 3),[2]; 6 hours,80.2 ng/mL and 70.6 ng/mL
same,Plasma Conc. (per mouse n = 3),[2]; 8 hours,62.9 ng/mL and 53.9 ng/mL
same,Plasma Conc. (per mouse n = 3),[2]; 24 hours,2.28 ng/mL and 1.84 ng/mL
same,Tlast,[2]; Mean (n = 3),24.0 h
same,t1/2,[2]; Mean (n = 3),3.46 h
same,AUCinf/D,[2]; Mean (n = 3),162 kg·h/kL
same,Cmax/D,[2]; Mean (n = 3),29.4 kg/kL
same,AUC0-8 hours,[2]; individual animals,1349 ng·h/mL and 1066 ng·h/mL
same,AUCinf,[2]; individual animals,1882 ng·h/mL and 1520 ng·h/mL
same,AUClast,[2]; individual animals,1870 ng·h/mL and 1511 ng·h/mL
same,Clast,[2]; individual animals,2.28 ng/mL and 1.84 ng/mL
same,Cmax,[2]; individual animals,318 ng/mL and 233 ng/mL
same,MRTinf,[2]; individual animals,4.64 h and 4.74 h
same,Tlast,[2]; individual animals,24.0 h
same,t1/2,[2]; individual animals,3.44 h and 3.37 h
same,AUCinf/D,[2]; individual animals,147 kg·h/kL and 188 kg·h/kL and 152 kg·h/kL
same,Cmax/D,[2]; individual animals,33.1 kg/kL and 31.8 kg/kL and 23.3 kg/kL
same,Tmax,"[2]; male, CD-1, mouse, plasma, individual animals",1 h
same,concentration at 0.083 h,"[2]; male, CD-1, mouse, plasma, oral, 10 mg/kg, 0.083 hours, mean n = 3, read-out: Plasma Conc. Mean",90.4 ng/mL
same,concentration at 0.083 h,"[2]; male, CD-1, mouse, plasma, oral, 10 mg/kg, 0.083 hours, read-out: Plasma Conc. (per mouse n = 3)",79.8 ng/mL
same,concentration at 0.25 h,"[2]; male, CD-1, mouse, plasma, oral, 10 mg/kg, 0.25 hours, mean n = 3, read-out: Plasma Conc. Mean",138 ng/mL
same,concentration at 0.25 h,"[2]; male, CD-1, mouse, plasma, oral, 10 mg/kg, 0.25 hours, read-out: Plasma Conc. (per mouse n = 3)",106 ng/mL
same,concentration at 0.5 hours,"[2]; male, CD-1, mouse, plasma, oral, 10 mg/kg, 0.5 hours, mean n = 3, read-out: Plasma Conc. Mean",226 ng/mL
same,concentration at 0.5 h,"[2]; male, CD-1, mouse, plasma, oral, 10 mg/kg, 0.5 hours, read-out: Plasma Conc. (per mouse n = 3)",202 ng/mL
same,concentration at 1 h,"[2]; male, CD-1, mouse, plasma, oral, 10 mg/kg, 1 hours, mean n = 3, read-out: Plasma Conc. Mean",294 ng/mL
same,concentration at 1 h,"[2]; male, CD-1, mouse, plasma, oral, 10 mg/kg, 1 hours, read-out: Plasma Conc. (per mouse n = 3)",331 ng/mL
same,concentration at 2 h,"[2]; male, CD-1, mouse, plasma, oral, 10 mg/kg, 2 hours, mean n = 3, read-out: Plasma Conc. Mean",255 ng/mL
same,concentration at 2 h,"[2]; male, CD-1, mouse, plasma, oral, 10 mg/kg, 2 hours, read-out: Plasma Conc. (per mouse n = 3)",227 ng/mL
same,concentration at 4 h,"[2]; male, CD-1, mouse, plasma, oral, 10 mg/kg, 4 hours, mean n = 3, read-out: Plasma Conc. Mean",132 ng/mL
same,concentration at 4 h,"[2]; male, CD-1, mouse, plasma, oral, 10 mg/kg, 4 hours, read-out: Plasma Conc. (per mouse n = 3)",104 ng/mL
same,concentration at 6 h,"[2]; male, CD-1, mouse, plasma, oral, 10 mg/kg, 6 hours, mean n = 3, read-out: Plasma Conc. Mean",66.7 ng/mL
same,concentration at 6 h,"[2]; male, CD-1, mouse, plasma, oral, 10 mg/kg, 6 hours, read-out: Plasma Conc. (per mouse n = 3)",49.3 ng/mL
same,concentration at 8 h,"[2]; male, CD-1, mouse, plasma, oral, 10 mg/kg, 8 hours, mean n = 3, read-out: Plasma Conc. Mean",52.5 ng/mL
same,concentration at 8 h,"[2]; male, CD-1, mouse, plasma, oral, 10 mg/kg, 8 hours, read-out: Plasma Conc. (per mouse n = 3)",40.6 ng/mL
same,concentration at 24 h,"[2]; male, CD-1, mouse, plasma, oral, 10 mg/kg, 24 hours, mean n = 3, read-out: Plasma Conc. Mean",1.92 ng/mL
same,concentration at 24 h,"[2]; male, CD-1, mouse, plasma, oral, 10 mg/kg, 24 hours, read-out: Plasma Conc. (per mouse n = 3)",1.64 ng/mL
same,concentration at 24 hours,"[2]; male, CD-1, mouse, plasma, oral, 10 mg/kg, Mean (n = 3)",1.92 ng/mL
same,concentration at 24 hours,"[2]; male, CD-1, mouse, plasma, oral, 10 mg/kg, individual animals",1.64 ng/mL
same,AUC(0-inf),[2]; [4],1620 ng·h/mL
same,MRT inf,[2]; [4],4.5 h
same,half-life,[2]; [4],3.5 h
same,AUC(0-t),"[2]; male, CD-1, mouse, plasma, po, 10 mg/kg, Mean (n = 3), read-out: AUC0-8 hours",1180 ng·h/mL
same,AUC(0-t),"[2]; male, CD-1, mouse, plasma, po, 10 mg/kg, Mean (n = 3), read-out: AUClast",1610 ng·h/mL
same,Cmax,"[2]; male, CD-1, mouse, plasma, po, 10 mg/kg, Mean (n = 3), read-out: Cmax",294 ng/mL
same,AUC(0-inf),"[2]; male, CD-1, mouse, plasma, po, 10 mg/kg, for the study",1620 ng·h/mL
same,Cmax,"[2]; male, CD-1, mouse, plasma, po, 10 mg/kg, for the study, read-out: Cmax",716 nM
same,AUC(0-inf),[2]; [5],1460 ng·h/mL
same,MRT inf,[2]; [5],4.12 h
same,half-life,[2]; [5],3.58 h
same,AUC(0-t),"[2]; male, CD-1, mouse, plasma, po, 10 mg/kg, individual animals, read-out: AUC0-8 hours",1120 ng·h/mL
same,AUC(0-t),"[2]; male, CD-1, mouse, plasma, po, 10 mg/kg, individual animals, read-out: AUClast",1460 ng·h/mL
same,Cmax,"[2]; male, CD-1, mouse, plasma, po, 10 mg/kg, individual animals, read-out: Cmax",331 ng/mL
same,microsomal CLint,[3],2.16 µL/min/mg
same,half-life,[3]; read-out: Human liver microsomes t1/2,10.7 h

# — patent US20230286983A1 (4E Therapeutics, Inc., priority 2020, published 2023)
